# Measurements taken from patent publication US12359230B2, “Microbial oils with high levels of omega-3 fatty acids” (MARA Renewables Corporation, priority 2020, dated 2025).
# Assays:
# Assay type in all cases: cell-based
# [1] = system: Aurantiochytrium sp. (G3); assay: Cerulenin dose timing: fatty acid profile of Aurantiochytrium sp. (G3)
# Experimental: To determine the ideal time for addition of the fatty acid synthase inhibitor cerulenin without excessive harm such as preventing cell growth, experiments were conducted by adding a set amount of cerulenin at various amounts of time after inoculation. In all experiments, the control experiment was performed with the same medium and growth conditions without the addition of FAS inhibitors.
# [2] = system: Aurantiochytrium sp. (G3); assay: Cerulenin concentration: fatty acid profile of Aurantiochytrium sp. (G3); conditions: 20° C.
# Experimental: To determine the optimum concentration of cerulenin to provide the best results, a range of concentrations from 1 μM to 40 μM were tested. For consistency, all cerulenin additions were made at 24 hours after inoculation. […] (G3) in varying concentrations of cerulenin at 20° C.
# [3] = system: Aurantiochytrium sp. (G3); assay: Cerulenin dosing regimen: fatty acid profile of Aurantiochytrium sp. (G3); conditions: for DHA: DPA / Fatty Acid Content, TFA: 20° C.
# Experimental: To investigate the effect of prolonged, repeated exposure to cerulenin, doses were spread equally across 3 or 6 times during the experiment. In each case, the total amount added was equivalent to the corresponding treatments that were added entirely at 24 hours. All additions began at 24 hours after inoculation. In FIGS. 3 and 4, a clear trend of increasing DHA and DPA was visible with both increasing cerulenin concentration and by dosing the cerulenin in multiple equivalent pulses.
# [4] = system: Aurantiochytrium sp. (G3); assay: Cerulenin effect on product concentration and yield per carbon consumed
# Text: To assess the impact of the herein described methods for PUFA enhancement strategy, the yields of product (i.e. TFA, DHA or DPA) relative to the amount of carbon assimilated by the G3 cells was investigated. In FIG. 5, the total amount of product synthesized (categorized as total fatty acids (TFA), saturated fatty acids (SFA) or DHA) is depicted. In the presence of fatty acid synthesis inhibitors, dosed at certain frequency and concentration, both TFA and DHA concentration increased while SFA concentration decreased. For example, under the condition where cerulenin was dosed 1 μM each time for 6 times at 12 hour intervals, TFA and DHA increased by 15% and 71%, respectively, when compared to the results of the control experiment (FIG. 5).
# [5] = 25 μM cerulenin added 0 hr after inoculation, 20° C.
# [6] = 25 μM cerulenin added 24 hr after inoculation, 20° C.
# [7] = 25 μM cerulenin added 48 hr after inoculation, from 25° C. data
# [8] = cerulenin added 24 hours after inoculation
# [9] = 1 μM cerulenin added at 24 hours after inoculation
# [10] = 2 μM cerulenin added at 24 hours after inoculation
# [11] = 3 μM cerulenin added at 24 hours after inoculation
# [12] = 6 μM cerulenin added at 24 hours after inoculation
# [13] = 9 μM cerulenin added at 24 hours after inoculation
# [14] = 25 μM cerulenin added at 24 hours after inoculation
# [15] = 40 μM cerulenin added at 24 hours after inoculation
# [16] = 3 μM cerulenin added entirely at 24 hours
# [17] = 6 μM cerulenin added entirely at 24 hours
# [18] = 9 μM cerulenin added entirely at 24 hours
# [19] = 25 μM cerulenin added entirely at 24 hours
# [20] = 3 × 1 μM cerulenin, interval 24 hours, starting at 24 hours after inoculation
# [21] = 3 × 2 μM cerulenin, interval 24 hours, starting at 24 hours after inoculation
# [22] = 3 × 3 μM cerulenin, interval 24 hours, starting at 24 hours after inoculation
# [23] = 3 × 8.3 μM cerulenin, interval 24 hours, starting at 24 hours after inoculation
# [24] = 6 × 0.5 μM cerulenin, interval 12 hours, starting at 24 hours after inoculation
# [25] = 6 × 1 μM cerulenin, interval 12 hours, starting at 24 hours after inoculation
# [26] = 6 × 2 μM cerulenin, interval 12 hours, starting at 24 hours after inoculation
# [27] = 6 × 3 μM cerulenin, interval 12 hours, starting at 24 hours after inoculation
# [28] = 6 × 4.17 μM cerulenin, interval 12 hours, starting at 24 hours after inoculation
# [29] = cerulenin 1 μM each time for 6 times at 12 hour intervals
smiles,measurement,setting,value
C/C=C/C/C=C/CCC(=O)[C@H]1O[C@H]1C(N)=O [cerulenin],DHA: DPA,[1]; [5],6.13
same,"Fatty Acid Content, TFA",[1]; [5],579.14 mg/g of dry biomass
same,DHA: DPA,[1]; [6],5.14
same,"Fatty Acid Content, TFA",[1]; [6],560.24 mg/g of dry biomass
same,DHA: DPA,[1]; [7],4.58
same,"Fatty Acid Content, TFA",[1]; [7],641.86 mg/g of dry biomass
same,"C14:0 reduced (% of TFA, vs control)",[1]; [8],21.1%
same,"C16:0 reduced (% of TFA, vs control)",[1]; [8],27.9%
same,cell growth,[1]; cerulenin added at any addition time after inoculation,not inhibited
same,DHA: DPA,[2]; [9],8.73
same,"Fatty Acid Content, TFA",[2]; [9],580.28 mg/g of dry biomass
same,DHA: DPA,[2]; [10],8.50
same,"Fatty Acid Content, TFA",[2]; [10],580.90 mg/g of dry biomass
same,DHA: DPA,[2]; [11],6.77
same,"Fatty Acid Content, TFA",[2]; [11],658.72 mg/g of dry biomass
same,DHA: DPA,[2]; [12],6.87
same,"Fatty Acid Content, TFA",[2]; [12],619.88 mg/g of dry biomass
same,DHA: DPA,[2]; [13],6.26
same,"Fatty Acid Content, TFA",[2]; [13],603.79 mg/g of dry biomass
same,DHA: DPA,[2]; [14],5.27
same,"Fatty Acid Content, TFA",[2]; [14],578.10 mg/g of dry biomass
same,DHA: DPA,[2]; [15],4.54
same,"Fatty Acid Content, TFA",[2]; [15],540.11 mg/g of dry biomass
same,DHA: DPA,[3]; [16],6.77
same,"Fatty Acid Content, TFA",[3]; [16],658.72 mg/g of dry biomass
same,DHA: DPA,[3]; [17],6.87
same,"Fatty Acid Content, TFA",[3]; [17],619.88 mg/g of dry biomass
same,DHA: DPA,[3]; [18],6.26
same,"Fatty Acid Content, TFA",[3]; [18],603.79 mg/g of dry biomass
same,DHA: DPA,[3]; [19],5.40
same,"Fatty Acid Content, TFA",[3]; [19],595.96 mg/g of dry biomass
same,DHA: DPA,[3]; [20],6.67
same,"Fatty Acid Content, TFA",[3]; [20],636.22 mg/g of dry biomass
same,DHA: DPA,[3]; [21],6.10
same,"Fatty Acid Content, TFA",[3]; [21],614.40 mg/g of dry biomass
same,DHA: DPA,[3]; [22],6.28
same,"Fatty Acid Content, TFA",[3]; [22],597.67 mg/g of dry biomass
same,DHA: DPA,[3]; [23],4.75
same,"Fatty Acid Content, TFA",[3]; [23],617.52 mg/g of dry biomass
same,DHA increase,"[3]; 6 equivalent doses of cerulenin, 12 μM in total",51.6%
same,DHA: DPA,[3]; [24],5.66
same,"Fatty Acid Content, TFA",[3]; [24],616.79 mg/g of dry biomass
same,DHA: DPA,[3]; [25],5.12
same,"Fatty Acid Content, TFA",[3]; [25],620.75 mg/g of dry biomass
same,DHA: DPA,[3]; [26],4.69
same,"Fatty Acid Content, TFA",[3]; [26],585.23 mg/g of dry biomass
same,DHA: DPA,[3]; [27],4.19
same,"Fatty Acid Content, TFA",[3]; [27],540.81 mg/g of dry biomass
same,DHA: DPA,[3]; [28],3.91
same,"Fatty Acid Content, TFA",[3]; [28],538.56 mg/g of dry biomass
same,DHA %,"[3]; flask experiment, multiple and intermittent dosing of cerulenin (12 μM total, 20° C., FIG. 7)",68.7%
same,maximal decrease in C14:0,[3]; repeated cerulenin dosing,85.1%
same,maximal decrease in C16:0,[3]; repeated cerulenin dosing,83.9%
same,impact on total fatty acids,[3]; repeated dose addition of cerulenin,no negative impact
same,increase in DHA yield (gram product/gram carbon consumed) vs control,[4]; 6×1 μM cerulenin,53%
same,reduction in SFA yield (gram product/gram carbon consumed) vs control,[4]; 6×1 μM cerulenin,64%
same,DHA concentration increased vs control,[4]; [29],71%
same,TFA concentration increased vs control,[4]; [29],15%
